In data set [1] the test system is HT-29. Put plainly: Apoptosis/Necrosis by fluorescent microscopy (acridine orange and ethidium bromide). It counts as cell-based, human. The procedure:
(§1) Drug stock solutions were made in 100% DMSO then diluted with RPMI media for cell culture testing. All drug solutions were prepared fresh on the day of testing. The cultured cells were obtained at passage #118 and grown in RPMI media supplemented with 5% fetal calf serum, and 2 mM glutamine, 100 U/ml penicillin, 100 U/ml streptomycin, and 0.25 μg/ml amphotericin. The cultures were maintained in a humidified atmosphere of 95% air and 5% CO2 at 37° C. The cultures were passaged at preconfluent densities using a solution of 0.05% trypsin and 0.53 mM EDTA. All experiments involved HT-29 cells between passages 120 and 140, except for the compound of Example 29 which involved SW-480 cell line. Cells were plated at the following densities to obtain cultures used for the experiments: 500 cells/well for 96 well flat-bottom microtiter plates, 1×10^6 cells 2 per 25 cm^2 flask.
Apoptosis and necrosis were measured using an assay that allowed for the simultaneous measurement of both types of cell death based on morphological characteristics of apoptotic cells (i.e., condensed chromatin) and membrane permeability. Drug preparation and cell culture conditions were the same as for the SRB assay described above. Confluent cultures were established in 25 cm^2 flasks. The cultures were assayed for apoptosis and necrosis by fluorescent microscopy following labeling with acridine orange and ethidium bromide. Floating and attached cells were collected by trypsinization and washed three times in PBS. One ml aliquots of 1×10^6 cells were centrifuged (300 g). The pellet was resuspended in 25 μl media and 1 μl of a dye mixture containing 100 μg/ml acridine orange and 100 μg/ml ethidium bromide prepared in PBS and mixed gently. Ten μl of mixture was placed on a microscope slide and covered with a 22 mm^2 coversilp and examined under 40× dry objectives using epillumination and filter combination.
An observer blinded to the identity of the treatments scored at least 100 cells per sample. Apoptotic cells were identified by nuclear condensation of chromatin stained by the acridine orange or ethidium bromide, respectively. Necrotic cells were identified by uniform labelling of the cell with ethidium bromide.

Data set [2] relates to SW-480 cell line. Put plainly: Tumor cell growth inhibition, Sulforhodamine B (SRB) protein binding assay, SW-480. It counts as cell-based. The note with it: Homo sapiens, SW480, 144 h, SW-480, six days exposure, read-out: Single Dose Percent Inhibition. The procedure:
as §1
Tumor cell growth inhibition was assessed using the Sulforhodamine B (SRB) protein binding assay. In this assay, tumor cells were plated in 96-well plates and treated with drug-containing media for six days (continuous exposure). […] The dye was then solubilized, and the optical density of the resulting solution was determined on a 96-well plate reader. […]
For each experiment, an IC50 value was determined, if possible, and used for comparative purposes. […]

Data set [3] deals with precancerous lesions. The following applies: background; cited from earlier work.
Data set [4] deals with prostaglandin synthesis. The following applies: background; cited from earlier work.
Data set [5] has as its system DMBA-Induced Mammary Lesions in Organ Culture. Put plainly: Mouse mammary gland organ culture, DMBA-induced mammary lesions. The format is cell-based, mouse (BALB/c). The following applies: vs. vehicle (DMSO), read-out: Percent Inhibition. The procedure: The compound of Example No. 1 was also tested for its ability to inhibit the incidence of mammary lesions in an organ culture system. This mouse mammary gland organ culture technique has been successfully used by other investigators to study the effects of known cancer-chemopreventative agents such as retinoids and selenium.
Female BALB/c mice, 28 days old, were treated for nine days with a combination of 1 μg of estradiol and 1 mg of progesterone daily, in order to prime the glands to be responsive to hormones in vitro. The animals were sacrificed and thoracic mammary glands were excised aseptically and incubated for ten days in growth media supplemented with growth-promoting hormones: insulin, prolactin, and hydrocortisone, at 5 μg/ml each and aldosterone at 1 μg/ml. A twenty-four hour treatment of 7,12-dimethylbenz(a)anthracene (DMBA, 2 μg/ml) was carried out between days three and four to induce the formation of mammary lesions. Fully developed glands were deprived of prolactin, hydrocortisone, and aldosterone for 14 days, resulting in the regression of the glands but not the mammary lesions. […]
The extent of the area occupied by the mammary lesions was quantitated by projecting an image of the gland onto a digitation pad. […] The space covered by each of the unregressed structures was also outlined on the digitization pad and quantitated by the computer.

The conditions of data set [6]: background; cited from earlier work.
For data set [7] the following is noted: background; sulfoxide itself; cited from earlier work.
Data set [8] deals with colonic polyps. The note with it: patients taking the drug; cited from earlier work.
For data set [9] the following is noted: background; cited from earlier work. The source holds these as a separate data set.

Entries after “also recorded” stand apart in the source; their conditions may differ.

With `COc1cc(OC)c(OC)cc1/C=C1/C(C)=C(CC(=O)O)c2cc(F)ccc21` [Example 8, (Z)-5-fluoro-2-methyl-1-(2,4,5-trimethoxybenzylidene)-3-indenyl-acetic acid], in [1] (200 μM), the “% Apoptotic Cells” value is given as over 90%. Turning to `COc1ccc(/C=C2/C(C)=C(CC(=O)O)c3cc(F)ccc32)cc1` [Example 11, (Z)-5-fluoro-2-methyl-1-(4-methoxybenzylidene)-3-indenyl-acetic acid], in [1] (200 μM), the “% Apoptotic Cells” value is on record as over 90%.

For the compound `CC1=C(CC(=O)O)c2cc(F)ccc2/C1=C\c1c(Cl)cccc1Cl` [Example 6, (Z)-5-fluoro-2-methyl-1-(2,6-dichlorobenzylidene)-3-indenyl-acetic acid], in data set [1] (200 μM), the “% Apoptotic Cells” value turned out to be 60% and the “% Necrotic Cells” value worked out at 40%. Consider `COc1cc(OC)c(/C=C2/C(C)=C(CC(=O)O)c3cc(F)ccc32)c(OC)c1` [Example 4, (Z)-5-fluoro-2-methyl-1-(2,4,6-trimethoxybenzyildene)-3-indenyl-acetic acid], for which, in data set [1] (200 μM), the “% Apoptotic Cells” value was over 90%.

For orientation: inhibition means the drop in the measured response relative to a control, in per cent. For `COc1cc(/C=C2/C(C)=C(CC(=O)O)c3cc(F)ccc32)cc(Br)c1OC` [Example 29, (Z)-5-fluoro-2-methyl-1-(3-bromo-4,5-dimethoxybenzylidene)-3-indenyl-acetic acid], in data set [2], the inhibition at 100 µM was determined as 80%.

Turning to `COc1ccc(/C=C2/C(C)=C(CC(=O)O)c3cc(F)ccc32)c(OC)c1OC` [Example 7, (Z)-5-fluoro-2-methyl-1-(2,3,4-trimethoxybenzylidene)-3-indenyl-acetic acid], the “% Apoptotic Cells” value in data set [1] (200 μM) is on record as over 90%. As for `CC1=C(CC(=O)O)c2cc(F)ccc2/C1=C\c1ccc(S(C)(=O)=O)cc1` [sulfone], in data set [3], the “inhibition of precancerous lesions” value is on record as “active as an inhibitor of precancerous lesions”. Besides, the prostaglandin synthesis inhibition entry in data set [4] is “inactive as an inhibitor of prostaglandin synthesis”.

Take `CC1=C(CC(=O)O)c2cc(F)ccc2/C1=C\c1ccccc1` [Example 10, (Z)-5-fluoro-2-methyl-1-benzylidene-3-indenyl-acetic acid]: in data set [1] (300 μM), the “% Apoptotic Cells” value is on record as 90%. Take `COc1cc(/C=C2/C(C)=C(CC(=O)O)c3cc(F)ccc32)cc(OC)c1OC` [Example 1, (Z)-5-fluoro-2-methyl-1-(3,4,5-trimethoxybenzylidene)-3-indenyl-acetic acid]: the inhibition at 10 µM in [5] (10 μM) was 50%. Besides, the inhibition at 100 µM in [5] (100 μM) came out at 100%. Also, the “% Apoptotic Cells” value in [1] (200 μM) was over 90%.

As to `CC1=C(CC(=O)O)c2cc(F)ccc2/C1=C\c1ccc([S+](C)[O-])cc1` (stereo not drawn) [Sulindac], the metabolic conversion entry in [6] is listed as “converted by liver enzymes to the corresponding sulfide; also recorded: metabolized to sulfone compound”. Further, in [7], the anti-arthritic activity entry is “believed to be inactive as an anti-arthritic agent”. Also, the effect on polyps result in [8] is recorded as “Polyps virtually disappear”. For `CSc1ccc(/C=C2/C(C)=C(CC(=O)O)c3cc(F)ccc32)cc1` [Sulindac Sulfide], the side effects result in data set [9] is “associated with the side effects of conventional NSAIDs”. Moreover, the prostaglandin synthesis inhibition entry in [4] is “active moiety as a prostaglandin synthesis inhibitor”.

The values above are taken from patent US5998477A, “Substituted methoxy benzylidene indenyl-acetic and propionic acids for treating patients with precancerous lesions” (Cell Pathways Inc., priority 1997, dated 1999).
